82 compounds from ChEMBL document CHEMBL3988442, “University of Dundee, Small-Polar-MMV Screening Library” (2021) can be followed below.

Assay [1] in a line: microbe, parasite or virus in culture. Particulars: Mycobacterium tuberculosis, 72 h, read-out: pIC50 (converted).
Assay [2] in a line: microbe, parasite or virus in culture. Particulars: Mycobacterium tuberculosis, 96 h, read-out: pIC50 (converted).

Take `NCC(=O)Nc1ccc(Cl)c(F)c1`: the IC50 in assay [1] was 212 µM; in assay [2], 120 µM.
The like results for `CCC(C)NC(=O)Cc1ccc2c(c1)OCCO2` (centres undefined) were, in that order, more than 501 µM and more than 501 µM.
With `CCc1ncc(C(=O)N2CCN(c3nccs3)CC2)s1`, the IC50 in assay [1] was 79.4 µM; in assay [2], more than 501 µM.
With `COc1cc(CNC(=O)C(C)OCC(C)C)ccn1` (centres undefined), the IC50 in assay [1] and in assay [2] was more than 501 µM throughout.
As to `CN(CC(=O)Nc1sccc1C(N)=O)Cc1cccs1`, the IC50 in assay [1] was 117 µM; in assay [2] it was more than 501 µM.
Turning to `COc1ccc(CSCC(N)=O)cc1Br`, the IC50 in assay [1] was 241 µM; in assay [2] it was 262 µM.
As for `CCC1(CC)CN(C(=O)NCCC(C)C)CCS1(=O)=O`, the IC50 in assay [1] was more than 501 µM; in assay [2], 407 µM.
Consider `CC(C)Oc1ccc(C(=O)NCc2ccnc(N3CCCC3)c2)cn1`, for which the results for the IC50 in assay [1] and in assay [2] were 36.9 µM and 45.1 µM, respectively.
The like results for `COC(=O)c1ccc(NCC(=O)NC(N)=O)cc1` were, in that order, 85.4 µM and 58.3 µM.
The like results for `N#Cc1ccc(NC(=O)Cn2ccnc2)cc1` were, in that order, more than 501 µM and more than 501 µM.
The like results for `N#Cc1cccnc1NC1CCN(c2ccccc2OC(F)F)C1=O` (centres undefined) were, in that order, more than 50.1 µM and 1.27 µM.
Regarding `CC(CO)(CO)NC(=O)c1cnc(-c2cccs2)s1`, the IC50 in assay [1] and in assay [2] was more than 501 µM in each case.
Consider `CCN(C1CC1)S(=O)(=O)c1ccc2c(c1)OCCO2`, for which the values for the IC50 in assay [1] and in assay [2] were 162 µM and more than 501 µM, respectively.
Regarding `CS(=O)(=O)NCC(=O)Nc1ccc(-n2cccn2)cc1`, the IC50 in assay [1] and in assay [2] was more than 501 µM throughout.
On to `CC(C)CC(C)Oc1cc(CNS(N)(=O)=O)ccn1` (centres undefined), for which the IC50 in assay [1] was 116 µM; in assay [2], 372 µM.
For the compound `CCc1nc(CNC)cs1`, the IC50 in assay [1] was 305 µM; in assay [2], 236 µM.
For `O=C(CN1CCNCC1)NCCSc1ccc(Cl)cc1`, the values for the IC50 in assay [1] and in assay [2] were 177 µM and 110 µM, respectively.
Consider `CC(Sc1nnc[nH]1)C(=O)Nc1ccc(C#N)cc1` (centres undefined), for which the IC50 in assay [1] and in assay [2] was more than 501 µM in each case.
On to `CNC(=O)C1CN(C(=O)c2cccs2)CCN(S(C)(=O)=O)C1` (centres undefined), for which the IC50 in assay [1] and in assay [2] was more than 50.1 µM in each case.
Take `O=C(Cc1ccc2c(c1)OCCO2)N1CCCC(n2ccnc2)C1` (centres undefined): the IC50 in assay [1] and in assay [2] was more than 50.1 µM in each case.
With `c1ccc(-c2cc(CN3C[C@@H]4CC[C@H](C3)N(CC3CC3)C4)on2)cc1`, the results for the IC50 in assay [1] and in assay [2] were 24.3 µM and 24.8 µM, respectively.
On to `O=C(NCCN1CCCC1)c1csc(-c2ccco2)n1`, for which the values for the IC50 in assay [1] and in assay [2] were 201 µM and 224 µM, respectively.
As for `Cc1cc(C)n(CC(=O)NCc2ccc(F)cc2)n1`, the IC50 is 216 µM in assay [1] and more than 501 µM in assay [2].
Regarding `Cc1nc(C2CCCN(C(=O)c3cc4c(s3)CCCC4)C2)no1` (centres undefined), the IC50 is 40.8 µM in assay [1] and 11.7 µM in assay [2].
For `CC(C)(C)OC(=O)N1CCN(c2ccnc(N)c2)CC1`, the IC50 in assay [1] and in assay [2] was more than 501 µM throughout.
Turning to `CCOC(=O)Nc1ccc2c(c1)OCCO2`, the IC50 in assay [1] was more than 501 µM; in assay [2], 325 µM.
The like results for `N#Cc1ccc(NCCOc2ccccc2)nc1` were, in that order, 95.3 µM and 48.4 µM.
Regarding `CN(Cc1cc(Br)cs1)C(=O)CC1(N)CCC1`, the IC50 in assay [1] is 158 µM; in assay [2] it was more than 501 µM.
Turning to `COC(=O)c1ccc(CSc2n[nH]c(C)n2)o1`, the IC50 in assay [1] was 239 µM; in assay [2] it was 181 µM.
Turning to `COc1ccc(NS(=O)(=O)N(C)C)c(Br)c1`, the IC50 in assay [1] and in assay [2] was more than 501 µM in each case.
For the compound `NC1CCN(Cc2ccccc2F)CC1`, the IC50 in assay [1] and in assay [2] was more than 501 µM in each case.
On to `CC(C)c1nsc(NC2CCOC3(CCCC3)C2)n1` (centres undefined), for which the IC50 in assay [1] was 12 µM; in assay [2] it was 6.74 µM.
The like results for `NCC(CO)Cc1cc(F)cc(Br)c1` (centres undefined) were, in that order, 305 µM and 264 µM.
Take `CC(C)Nc1nc(N2CCCC2)nc2c1CN(c1ncc(F)cn1)CC2`: the IC50 in assay [1] was 46.4 µM; in assay [2], 28.3 µM.
In the case of `O=C(c1ccc(NCc2cccc(F)c2)cc1)N1CCCC1`, the IC50 in assay [1] and in assay [2] was more than 50.1 µM throughout.
As to `NCCOc1ccc2ccccc2n1`, the figures for the IC50 in assay [1] and in assay [2] were 244 µM and more than 501 µM, respectively.
Take `COCCN(C)C(=O)Nc1cccc(Cl)c1`: the figures for the IC50 in assay [1] and in assay [2] were more than 501 µM and 282 µM, respectively.
For `CN1CCc2nc(NC(=O)CC(C)(C)C)sc2C1`, the IC50 in assay [1] is 210 µM; in assay [2], 127 µM.
The like results for `COc1cc(C(=O)NCCCc2ccccc2)on1` were, in that order, more than 50.1 µM and more than 50.1 µM.
On to `COCC(=O)N1CCCN(Cc2cc(C(C)C)no2)CC1`, for which the IC50 in assay [1] and in assay [2] was more than 50.1 µM throughout.
In the case of `O=C1CCC2(CNC(=O)C3CC3)CCCC=C2N1` (centres undefined), the IC50 in assay [1] and in assay [2] was more than 501 µM throughout.
On to `CCNC(=O)c1cc(-c2ccc(F)cc2)n[nH]1`, for which the IC50 in assay [1] was 209 µM; in assay [2] it was more than 501 µM.
Consider `CS(=O)(=O)Nc1cccc(C(=O)Nc2ccccc2)c1`, for which the results for the IC50 in assay [1] and in assay [2] were 130 µM and 267 µM, respectively.
The like results for `CN1CCN(C(=O)c2cc3c(F)cccc3s2)CC1` were, in that order, 165 µM and more than 501 µM.
For `CCS(=O)(=O)NCC(N)c1ccc(C(C)C)cc1` (centres undefined), the IC50 in assay [1] is 85.8 µM; in assay [2] it was 211 µM.
The like results for `COC(=O)COc1ccc(C(C)=O)cc1Cl` were, in that order, 264 µM and 354 µM.
Consider `O=C1OCCC1Sc1nnc(Nc2ccccc2)s1` (centres undefined), for which the IC50 in assay [1] was 455 µM; in assay [2], more than 501 µM.
With `CCC(CO)NCc1ccc(-c2ccc(Br)cc2)o1` (centres undefined), the IC50 in assay [1] was 44.3 µM; in assay [2], 27.5 µM.
As for `CCOC(=O)N1CCN(C(=O)Cc2cccs2)CC1`, the figures for the IC50 in assay [1] and in assay [2] were 371 µM and more than 501 µM, respectively.
For the compound `CC(C)CCN1Cc2c(C(=O)O)ncn2-c2ccccc2S1(=O)=O`, the IC50 in assay [1] and in assay [2] was more than 50.1 µM each time.
On to `FC(F)Sc1ccc(NCc2nnc(C3CC3)o2)cc1`, for which the IC50 in assay [1] is 11.8 µM; in assay [2], 46.7 µM.
The like results for `CCC(C(=O)N1CCC(N)CC1)c1ccccc1` (centres undefined) were, in that order, 118 µM and more than 501 µM.
For the compound `Clc1ccccc1CN1CCc2nc(C3CCNCC3)ncc2C1`, the results for the IC50 in assay [1] and in assay [2] were 4.89 µM and more than 50.1 µM, respectively.
`Cc1noc(-c2c[nH]nc2C2CCCN2C(=O)c2ccccc2)c1C` (centres undefined): the IC50 in assay [1] and in assay [2] was more than 50.1 µM in each case.
Regarding `OCC(CO)Nc1ccc2c(Cl)ccc(Cl)c2n1`, the IC50 in assay [1] and in assay [2] was more than 50.1 µM in each case.
Regarding `COc1cc(CNC(=O)Nc2ccnc(C)c2)ccn1`, the IC50 in assay [1] was 100 µM; in assay [2] it was 98.2 µM.
As to `Cc1ccc(-c2cc(CS(=O)(=O)NC3CCCNC3=O)on2)cc1` (centres undefined), the IC50 in assay [1] and in assay [2] was more than 50.1 µM in each case.
Turning to `COc1ccc(-c2nc(CCN)co2)cc1`, the IC50 is 80.5 µM in assay [1] and 71.4 µM in assay [2].
`CCNc1cccc(OC)c1`: the IC50 in assay [1] was 109 µM; in assay [2] it was 144 µM.
In the case of `CCc1cc(CN(C)C(=O)c2cnon2)on1`, the IC50 in assay [1] and in assay [2] was more than 50.1 µM throughout.
Turning to `O=C(c1cc(C2CC2)on1)N1CCC(Oc2ncccc2Cl)CC1`, the values for the IC50 in assay [1] and in assay [2] were 48.7 µM and 24.9 µM, respectively.
In the case of `CC(C)C[C@H](N)C(=O)N(C)c1ccccc1`, the IC50 in assay [1] is 242 µM; in assay [2] it was 225 µM.
Take `NC(=O)NC(=O)CCN1CCCN(c2nccs2)CC1`: the IC50 in assay [1] is 35.5 µM; in assay [2], 25.1 µM.
Regarding `OCCC1COc2ccc(F)cc2N1` (centres undefined), the IC50 in assay [1] and in assay [2] was more than 501 µM each time.
Take `CCc1nn(C)c(Cl)c1CN1CCN(c2ccc(C(N)=O)cn2)CC1`: the IC50 in assay [1] and in assay [2] was more than 50.1 µM each time.
As for `C=C(C)CN1C(=O)Nc2ccccc2S1(=O)=O`, the IC50 in assay [1] was 349 µM; in assay [2], more than 501 µM.
The like results for `NCc1cnn(-c2cccc(Cl)c2)c1` were, in that order, 258 µM and 260 µM.
As for `Cc1ccc(C(=O)N2CCCC(Nc3ccc(F)cc3)C2)cc1` (centres undefined), the IC50 in assay [1] was 18.7 µM; in assay [2], 20.9 µM.
The like results for `CC(NC(=O)CNc1ccccc1F)c1ccco1` (centres undefined) were, in that order, 51.7 µM and 4.24 µM.
Take `CSCC(C)(O)CNc1nnnn1-c1ccccc1` (centres undefined): the results for the IC50 in assay [1] and in assay [2] were 306 µM and 290 µM, respectively.
Consider `Cc1ccc2nc(-c3cnc(N)nc3)c(C)c(C(=O)N(C)C)c2c1`, for which the IC50 in assay [1] and in assay [2] was more than 50.1 µM in each case.
`CC(C)c1cccc(CN[C@H](CO)C(C)C)n1`: the IC50 in assay [1] is 303 µM; in assay [2], more than 501 µM.
As to `N[C@@H]1CCN(Cc2cc(F)cc(C(F)(F)F)c2)C[C@H]1O`, the results for the IC50 in assay [1] and in assay [2] were 266 µM and more than 501 µM, respectively.
The like results for `CN1CCC(Cc2cc(Nc3ncccn3)ncn2)CC1` were, in that order, more than 50.1 µM and more than 50.1 µM.
Consider `Cc1oc(-c2ccc(Cl)cc2)nc1C(=O)NC1=NCCS1`, for which the IC50 in assay [1] and in assay [2] was more than 50.1 µM each time.
Take `O=C1CCC(Nc2nc(-c3ccccc3)ns2)CN1` (centres undefined): the IC50 is more than 501 µM in assay [1] and 286 µM in assay [2].
As for `CN(Cc1ccc(N)nc1)c1ncc(Cl)cn1`, the results for the IC50 in assay [1] and in assay [2] were 208 µM and 237 µM, respectively.
The like results for `O=C(NCCSc1ccccn1)C1CCCCO1` (centres undefined) were, in that order, 476 µM and more than 501 µM.
With `CC(C)N(C)S(=O)(=O)NCCc1cccs1`, the IC50 was 182 µM in assay [1] and 206 µM in assay [2].
For the compound `COCCNc1ccc(C#N)cc1`, the results for the IC50 in assay [1] and in assay [2] were more than 501 µM and 280 µM, respectively.
`COc1cccc(CN2CCC(CO)(Cc3ccc(Cl)cc3)CC2)c1O`: the IC50 in assay [1] is 29.4 µM; in assay [2], 26.1 µM.
With `CCCC(=O)Nc1cc(C(=O)OC)cc(C(=O)OC)c1`, the values for the IC50 in assay [1] and in assay [2] were 249 µM and more than 501 µM, respectively.
